No end group written: not given here.
Molecular target: T1, APC (Homo sapiens, UniProt P04070)
T1 construct: begins at amino acid residue position 158 and ends at 419; The light chain is 155 amino acid residues in length; tissue Factor IX concentrate from Immuno AG, Vienna; thrombin from Enzyme Research Laboratories
Test: Activated partial thromboplastin time (APTT) coagulation assay of APC anticoagulant activity
Assay type: biochemical
Conditions: APTT assay in the presence of APC
Procedure: The effect of the synthetic peptides on APC anticoagulant activity were determined using the APTT assay in the presence of either normal citrate anticoagulated plasma (NHP) or protein S depleted plasma (PSDP). The assays were performed essentially as described. See Marlar et al., Blood, 59:1067-1072 […]; Suzuki et al., J. Biol. Chem., 258:163-168 (1983); Gruber et al., Blood, 73:639-642 (1989); Ohlin et al., Biochem., 29:644-651 (1990). NHP was purchased from George King Bio-Medical, Inc. (Overland Park, Kans.). PSDP was prepared from a normal human citrate-anticoagulated plasma pool from ten healthy donors. Protein S was immunodepleted from the NHP by immunoaffinity chromatography of NHP over an anti-protein S antibody column to form PSDP. The anti-protein S antibody column was prepared by coupling 100 mg of a monoclonal, high-affinity, calcium-independent anti-PS antibody, designated S7, to 30 ml of CNBr-activated Sepharose 4B (Pharmacia) as described in Example 2c1). Residual total protein S content in the resultant PSDP was less than 0.1% protein S as determined by quantitative immunoblotting, by solid-phase ELISA for total protein S and by electroimmunoassay.
For the APTT assay, APC was prepared as described in Example 2c2). The specific anticoagulant activity of APC was determined to be 250 Units/mg. The concentration of the APC used in the assay was initially optimized with respect to the sensitivity of the assay towards APC-induced prolongation of clotting time compared to clotting time without APC.
Once the optimal concentration of APC was determined, peptides from Table 2 were then separately admixed for a final concentration of 500 μM with 10 nM APC in 100 μl of TBS-BSA at pH 7.4 to form peptide-APC admixtures. The resulting admixtures were maintained for seven minutes at 37° C. Separate aliquots of peptides maintained under the same conditions in the absence of APC served as controls for the inhibitory effect of synthetic peptides on APC anticoagulant activity. After the maintenance period, 100 μl of NHP and 100 μl APTT-reagent Thrombosil (Ortho Diagnostics, Raritan, N.J.) were admixed into each peptide admixture and maintained for 200 seconds at 37° C. to form a pre-coagulation admixture. In some experiments, PSDP was used in the place of NHP to determine the effect of Protein S on the assay system. Coagulation was then initiated by the admixture of 100 μl of 30 mM CaCl2 in TBS prewarmed to 37° C. to each of the pre-coagulation admixtures. The time for clot formation was measured by an Electra 700 Automatic Coagulation Timer (Medical Laboratory Automation, Inc., Mount Vernon, N.Y.). Each peptide's effect was determined in duplicate.
Additional assays were performed to compare the specificity of the inhibitory effect of peptide-(390-404) on APC anticoagulant activity. Both APTT and Xa-1-stage assays were performed with peptide-(390-404) and with the same peptide synthesized in the reverse order, peptide-(404-390), at concentrations of the peptides ranging from 0 μM to 40 μM. In APTT assays performed as described above in the presence of NHP, APC was used at a concentration of 2.5 nM. For APTT assays in the presence of PSDP, APC was used at a concentration of 5 nM. […]
Once the optimal concentration of APC was determined, anti-(390-404) was separately admixed ranging in concentration from 0.0 to 240 nM with APC in 200 μl of TBS-BSA and 30 mM CaCl2 at pH 7.4 to form an anti-(390-404)-APC immunoreaction admixture pre-maintenance solution. […]

T1 sequence (P04070 212-461): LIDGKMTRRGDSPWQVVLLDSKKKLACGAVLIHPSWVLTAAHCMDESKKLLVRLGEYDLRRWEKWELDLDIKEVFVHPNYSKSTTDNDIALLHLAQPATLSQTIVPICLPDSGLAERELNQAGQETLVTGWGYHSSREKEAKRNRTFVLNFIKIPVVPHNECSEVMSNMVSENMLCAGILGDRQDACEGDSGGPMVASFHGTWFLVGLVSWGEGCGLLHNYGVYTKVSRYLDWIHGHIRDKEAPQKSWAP
T1 sequence (P04070 43-197): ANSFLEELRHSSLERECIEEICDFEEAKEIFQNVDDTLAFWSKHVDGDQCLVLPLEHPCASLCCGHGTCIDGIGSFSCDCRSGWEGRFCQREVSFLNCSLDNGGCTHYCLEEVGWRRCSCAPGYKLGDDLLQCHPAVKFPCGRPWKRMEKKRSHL

KRNRTFVLNFIKIPV-NH2 [peptide-(311-325), KRNRTFVLNFIKIPV]
IC50: 20 µM
IC90: 50 µM
